# Assay results: patent US12503436B2, “Compounds and compositions for treating conditions associated with STING activity” (NOVARTIS PHARMA AG, priority 2021, dated 2025)
# Molecular target: STING (Homo sapiens, UniProt Q86WV6, G230A/H232R/R293Q/R71H)
# Assay: STING reporter assay in THP1-Dual KO-IFNAR2 cells (2′3′cGAMP stimulation, luciferase reporter)
# Type: cell-based
# Details: 15 μM 2′3′cGAMP stimulation, 24 h, read-out: Pharmaron, THP1_IFNAR2 STING 24 h Luci Normalized: GeoMean EC50
# How it was run: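 EC50 from secreted luciferase (QUANTI-Luc Plus luminescence of supernatant) after 24 h at 37 °C, 5% CO2. Cells: THP1-Dual KO-IFNAR2, treated with compound (0.0017-100 μM final) plus lipofected 2′3′cGAMP at 15 μM final.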
# Chain of STING (Q86WV6 whole entry R71H/G230A/H232R/R293Q): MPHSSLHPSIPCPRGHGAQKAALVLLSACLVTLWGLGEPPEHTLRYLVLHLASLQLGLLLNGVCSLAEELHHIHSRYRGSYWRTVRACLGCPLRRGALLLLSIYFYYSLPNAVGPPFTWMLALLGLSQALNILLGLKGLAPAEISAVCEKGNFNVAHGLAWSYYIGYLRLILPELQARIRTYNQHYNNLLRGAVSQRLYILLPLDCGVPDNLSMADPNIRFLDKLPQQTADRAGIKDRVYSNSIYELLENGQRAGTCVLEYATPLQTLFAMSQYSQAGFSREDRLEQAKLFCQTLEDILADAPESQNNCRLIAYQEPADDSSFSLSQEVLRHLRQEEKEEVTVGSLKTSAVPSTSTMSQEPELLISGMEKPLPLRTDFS
row,Compound,EC50 [µM]
1,"CC(C)(C)OC(=O)N1CC(C)(C(=O)Nc2c[nH]c3ccc(O[C@H]4C[C@H](c5ccc(C(F)(F)F)cc5)C4)cc23)C1 [Compound 568, tert-butyl 3-methyl-3-((5-(trans-3-(4-(trifluoromethyl)phenyl)cyclobutoxy)-1H-indol-3-yl)carbamoyl)azetidine-1-carboxylate]",0.2 to 1
2,"CC(C)(C)OC(=O)N1CC(C(=O)Nc2c[nH]c3ccc(O[C@H]4C[C@H](c5ccc(C(F)(F)F)cc5)C4)cc23)C1 [Compound 466, tert-butyl 3-((5-(trans-3-(4-(trifluoromethyl)phenyl)cyclobutoxy)-1H-indol-3-yl)carbamoyl)azetidine-1-carboxylate]",0.2 to 1
3,"CC1(C(=O)Nc2c[nH]c3ccc(OC4CC(c5ccc(C(F)(F)F)nc5)C4)cc23)CC1 (stereo in doubt) [Compound 580, 1-methyl-N-(5-(cis-3-(6-(trifluoromethyl)pyridin-3-yl)cyclobutoxy)-1H-indol-3-yl)cyclopropane-1-carboxamide]",0.04 to 0.2
4,"CC(=O)Nc1c[nH]c2ccc(COCC3CCN(CC(F)(F)F)CC3)cc12 [Compound 268, N-(5-(((1-(2,2,2-trifluoroethyl)piperidin-4-yl)methoxy)methyl)-1H-indol-3-yl)acetamide]",1 to 5
5,"O=C(Nc1c[nH]c2ccc(OCCc3ccc(C(F)(F)F)nc3)cc12)C1CCC1 [Compound 142, N-(5-(2-(6-(trifluoromethyl)pyridin-3-yl)ethoxy)-1H-indol-3-yl)cyclobutanecarboxamide]",0.2 to 1
6,"CC1(C)CC(C(=O)Nc2c[nH]c3ccc(O[C@H]4C[C@@H](c5ccc(C(F)(F)F)cc5)C4)cc23)C1 [Compound 361, 3,3-dimethyl-N-(5-(cis-3-(4-(trifluoromethyl)phenyl)cyclobutoxy)-1H-indol-3-yl)cyclobutane-1-carboxamide]",0.04 to 0.2
7,"CC1(C(=O)Nc2c[nH]c3ccc(O[C@H]4C[C@H](c5ccc(C(F)(F)F)cc5)C4)cc23)CN(CC(F)F)C1 [Compound 483, 1-(2,2-difluoroethyl)-3-methyl-N-(5-(trans-3-(4-(trifluoromethyl)phenyl)cyclobutoxy)-1H-indol-3-yl)azetidine-3-carboxamide]",0.04 to 0.2
8,"CC(=O)Nc1c[nH]c2ccc(O[C@@H]3C[C@H](c4ccc(C(F)(F)F)cc4)C3(C)C)cc12 (relative stereo) [Compound 432, N-(5-(cis-2,2-dimethyl-3-(4-(trifluoromethyl)phenyl)cyclobutoxy)-1H-indol-3-yl)acetamide]",1 to 5
9,"C[C@H]1C[C@@H](C(=O)Nc2c[nH]c3ccc(OCCc4ccc(C(F)(F)F)cc4)cc23)C1 [Compound 162, cis-3-methyl-N-(5-(4-(trifluoromethyl)phenethoxy)-1H-indol-3-yl)cyclobutane-1-carboxamide]",0.04 to 0.2
10,"O=C(Nc1c[nH]c2ccc(O[C@H]3C[C@H](c4ccc(C(F)(F)F)cc4)C3)cc12)C1CN(CC(F)(F)F)C1 [Compound 244, 1-(2,2,2-trifluoroethyl)-N-(5-(trans-3-(4-(trifluoromethyl)phenyl)cyclobutoxy)-1H-indol-3-yl)azetidine-3-carboxamide]",0.04 to 0.2
11,"O=C(Nc1c[nH]c2ccc(OCc3ccc(C(F)(F)F)cc3)cc12)C1(F)CC1 [Compound 331, 1-fluoro-N-(5-((4-(trifluoromethyl)benzyl)oxy)-1H-indol-3-yl)cyclopropane-1-carboxamide]",1 to 5
12,"CO[C@H]1C[C@H](C(=O)Nc2c[nH]c3ccc(O[C@H]4C[C@H](c5ccc(C(F)(F)F)cc5)C4)cc23)C1 [Compound 242, trans-3-methoxy-N-(5-(trans-3-(4-(trifluoromethyl)phenyl)cyclobutoxy)-1H-indol-3-yl)cyclobutane-1-carboxamide]",0.04 to 0.2
13,"CC1(C(=O)Nc2c[nH]c3ccc(O[C@H]4C[C@@H](c5ccc(C(F)(F)F)cc5)C4)cc23)CCOC1 (stereo partly drawn) [Compound 357, 3-methyl-N-(5-(cis-3-(4-(trifluoromethyl)phenyl)cyclobutoxy)-1H-indol-3-yl)tetrahydrofuran-3-carboxamide]",0.2 to 1
14,"CC1(C(=O)Nc2c[nH]c3ccc(O[C@H]4C[C@@H](c5ccc(C(F)(F)F)nc5)C4)cc23)CC1 [Compound 579, 1-methyl-N-(5-(cis-3-(6-(trifluoromethyl)pyridin-3-yl)cyclobutoxy)-1H-indol-3-yl)cyclopropane-1-carboxamide]",0.2 to 1
15,"CC(=O)Nc1c[nH]c2ccc(OCCc3ccc(C(F)(F)F)nc3)cc12 [Compound 113, N-(5-(2-(6-(trifluoromethyl)pyridin-3-yl)ethoxy)-1H-indol-3-yl)acetamide]",1 to 5
16,"COC1CC(C(=O)Nc2c[nH]c3ccc(OCc4ccc(C(F)(F)F)cc4)cc23)C1 (stereo not drawn) [Compound 352, 3-methoxy-N-(5-((4-(trifluoromethyl)benzyl)oxy)-1H-indol-3-yl)cyclobutane-1-carboxamide]",0.04 to 0.2
17,"O=C(Nc1c[nH]c2ccc(OCCc3ccc(C(F)(F)F)cc3)cc12)C1CC1(F)Cl (stereo not drawn) [Compound 216, 2-chloro-2-fluoro-N-(5-(4-(trifluoromethyl)phenethoxy)-1H-indol-3-yl)cyclopropane-1-carboxamide]",0.2 to 1
18,"O=C(Nc1c[nH]c2ccc(O[C@H]3C[C@@H](c4ccc(C(F)(F)F)cc4)C3)cc12)C1CC(Cl)C1 (stereo partly drawn) [Compound 336, 3-chloro-N-(5-(cis-3-(4-(trifluoromethyl)phenyl)cyclobutoxy)-1H-indol-3-yl)cyclobutane-1-carboxamide]",0.2 to 1

# Second part, the compound after the results:
row,EC50 [µM],Compound
1,1 to 5,"CC1(C(=O)Nc2c[nH]c3ccc(OCCc4ccc(C(F)(F)F)nc4)cc23)COC1 [Compound 372, 3-methyl-N-(5-(2-(6-(trifluoromethyl)pyridin-3-yl)ethoxy)-1H-indol-3-yl)oxetane-3-carboxamide]"
2,0.2 to 1,"CC1OC(C)C1C(=O)Nc1c[nH]c2ccc(OCCc3ccc(C(F)(F)F)cc3)cc12 (stereo not drawn) [Compound 525, 2,4-dimethyl-N-(5-(4-(trifluoromethyl)phenethoxy)-1H-indol-3-yl)oxetane-3-carboxamide]"
3,1 to 5,"CC(=O)Nc1c[nH]c2ccc(C(C)C[C@@H]3C[C@@H]4CN(CC(F)(F)F)C[C@@H]4C3)cc12 (stereo partly drawn) [Compound 538, N-(5-(1-((3aR,5r,6aS)-2-(2,2,2-trifluoroethyl)octahydrocyclopenta[c]pyrrol-5-yl)propan-2-yl)-1H-indol-3-yl)acetamide]"
4,0.2 to 1,"C[C@]1(C(=O)Nc2c[nH]c3ccc(OCC[C@@H]4C[C@@H]5CN(CC(F)(F)F)C[C@@H]5C4)cc23)C[C@@H](O)C1 [Compound 513, (1s,3S)-3-hydroxy-1-methyl-N-(5-(2-((3aR,5r,6aS)-2-(2,2,2-trifluoroethyl)octahydrocyclopenta[c]pyrrol-5-yl)ethoxy)-1H-indol-3-yl)cyclobutane-1-carboxamide]"
5,0.2 to 1,"COCCOCC(=O)Nc1c[nH]c2ccc(OCCc3ccc(C(F)(F)F)cc3)cc12 [Compound 407, 2-(2-methoxyethoxy)-N-(5-(4-(trifluoromethyl)phenethoxy)-1H-indol-3-yl)acetamide]"
6,0.04 to 0.2,"O=C(Nc1c[nH]c2ccc(CCOc3ccc(C(F)(F)F)cc3)cc12)C1CC(F)C1 (stereo not drawn) [Compound 593, 3-fluoro-N-(5-(2-(4-(trifluoromethyl)phenoxy)ethyl)-1H-indol-3-yl)cyclobutane-1-carboxamide]"
7,0.04 to 0.2,"CC[C@@H](O)C(=O)Nc1c[nH]c2ccc(OCC[C@@H]3C[C@@H]4CN(CC(F)(F)F)C[C@@H]4C3)cc12 [Compound 522, (R)-2-hydroxy-N-(5-(2-((3aR,5r,6aS)-2-(2,2,2-trifluoroethyl)octahydrocyclopenta[c]pyrrol-5-yl)ethoxy)-1H-indol-3-yl)butanamide]"
8,0.04 to 0.2,"C[C@H]1C[C@@H]1C(=O)Nc1c[nH]c2ccc(CCOc3ccc(C(F)(F)F)cc3)cc12 [Compound 394, (1S,2S)-2-methyl-N-(5-(2-(4-(trifluoromethyl)phenoxy)ethyl)-1H-indol-3-yl)cyclopropane-1-carboxamide]"
9,0.2 to 1,"CC1(C(=O)Nc2c[nH]c3ccc(OCC[C@@H]4C[C@@H]5CN(CC(F)(F)F)C[C@@H]5C4)cc23)CCC1 [Compound 369, 1-methyl-N-(5-(2-((3aR,5r,6aS)-2-(2,2,2-trifluoroethyl)octahydrocyclopenta[c]pyrrol-5-yl)ethoxy)-1H-indol-3-yl)cyclobutane-1-carboxamide]"
10,0.2 to 1,"O=C(Nc1c[nH]c2ccc(CCOc3ccc(C(F)(F)F)cc3)cc12)C1CCOCC1 [Compound 401, N-(5-(2-(4-(trifluoromethyl)phenoxy)ethyl)-1H-indol-3-yl)tetrahydro-2H-pyran-4-carboxamide]"
11,1 to 5,"CC(=O)Nc1c[nH]c2ccc(CCOc3cc(Cl)cc(C#N)c3)cc12 [Compound 476, N-{5-[2-(3-chloro-5-cyanophenoxy)ethyl]-1H-indol-3-yl}acetamide]"
12,0.04 to 0.2,"N#C[C@@H]1C[C@@H]1C(=O)Nc1c[nH]c2ccc(CCOc3ccc(C(F)(F)F)cc3)cc12 [Compound 582, (1S,2R)-2-cyano-N-(5-(2-(4-(trifluoromethyl)phenoxy)ethyl)-1H-indol-3-yl)cyclopropane-1-carboxamide]"
13,0.2 to 1,"3,3-dimethyl-N-(5-(2-((3aR,5r,6aS)-2-(2,2,2-trifluoroethyl)octahydrocyclopenta[c]pyrrol-5-yl)ethoxy)-1H-indol-3-yl)butanamide [Compound 339]"
14,0.2 to 1,"CC(=O)Nc1c[nH]c2ccc(CCOc3cnc4ccc(OC(F)(F)F)cc4c3)cc12 [Compound 480, N-[5-(2-{[6-(trifluoromethoxy)quinolin-3-yl]oxy}ethyl)-1H-indol-3-yl]acetamide]"
15,0.2 to 1,"CC(=O)Nc1c[nH]c2ccc(OC3CCN(c4ccc(C(F)(F)F)cc4)C3)cc12 (stereo not drawn) [Compound 494, N-(5-((1-(4-(trifluoromethyl)phenyl)pyrrolidin-3-yl)oxy)-1H-indol-3-yl)acetamide]"
